Series [1] can be described thus: Mean residence time (0 to infinity) in mouse at 20 mg/kg, iv or 35 mg/kg, po administered as single dose by LC/MS/MS analysis. It is filed as ADME, organism-based. The conditions noted are these: in vivo.
In series [2] the test system is Mus musculus. As to the kind of experiment: AUC (0 to infinity) in mouse at 20 mg/kg, iv or 35 mg/kg, po administered as single dose by LC/MS/MS analysis. It is filed as ADME, organism-based. The conditions noted are these: in vivo.
Series [3] deals with HT-29. As to the kind of experiment: Cytotoxicity against human HT-29 cells after 72 hrs by MTT assay. The conditions noted are these: HT-29, 72 h. In general terms: Formazan colour is commonly taken as a measure of viable cells.
A further series has as its system PBL. As to the kind of experiment: Cytotoxicity against human PBL cells after 72 hrs by MTT assay. It is filed as cell-based.
A short description of series [4]: Cytotoxicity against human MKN45 cells after 72 hrs by MTT assay. The conditions noted are these: MKN-45, 72 h.
A short description of series [5]: Apparent volume of distribution during terminal phase in mouse at 35 mg/kg, po administered as single dose measured at 0.25 to 24 hrs by LC/MS/MS analysis. The series is classed as ADME, organism-based. The conditions noted are these: in vivo, read-out: Vz/F.
Series [6] relates to Mus musculus. As to the kind of experiment: Cmax in mouse at 35 mg/kg, po administered as single dose measured at 0.25 to 24 hrs by LC/MS/MS analysis. It is filed as ADME, organism-based. Further details: dose 35 mg/kg, route oral. The conditions noted are these: in vivo.
The next series concerns MDA-MB-231. As to the kind of experiment: Cytotoxicity against human MDA-MB-231 cells after 72 hrs by MTT assay. The series is classed as functional, cell-based. The conditions noted are these: MDA-MB-231, 72 h.
The test system of series [7] is Mus musculus. The series is described as follows: Half life in mouse at 20 mg/kg, iv or 35 mg/kg, po administered as single dose by LC/MS/MS analysis. The conditions noted are these: in vivo. It is filed as ADME, organism-based.
In series [8] the test system is Mus musculus. As to the kind of experiment: Tmax in mouse at 35 mg/kg, po administered as single dose by LC/MS/MS analysis. It is filed as ADME, organism-based. The conditions noted are these: in vivo.
Series [9] concerns A549. As to the kind of experiment: Cytotoxicity against human A549 cells after 72 hrs by MTT assay. It is filed as functional, cell-based. The conditions noted are these: A549, 72 h.
In series [10] the test system is Mus musculus. As to the kind of experiment: Apparent oral clearance in mouse at 35 mg/kg, po administered as single dose measured at 0.25 to 24 hrs by LC/MS/MS analysis. It is filed as ADME, organism-based. The conditions noted are these: in vivo.
Series [11] has as its target Platelet-derived growth factor receptor alpha (Homo sapiens, UniProt P16234). As to the kind of experiment: Inhibition of PDGFR-alpha (unknown origin) using poly(glu,Tyr)4:1 as substrate incubated for 30 mins by homogeneous time-resolved fluorescence assay.
In series [12] the test system is Mus musculus. The series is described as follows: Toxicity in Balb/c mouse xenografted with human MKN45 cells assessed as change in body weight at 50 mg/kg, po bid for 24 days. It is filed as organism-based, MKN-45. The conditions noted are these: in vivo, 576 h. In general terms: Xenograft models place foreign cells or tissue in a host animal.
Series [13] concerns A549. The series is described as follows: Potency index, ratio of IC50 for foretinib to IC50 for test compound for cytotoxicity against human A549 cells. The series is classed as functional.
Series [14] addresses Epidermal growth factor receptor (Homo sapiens, UniProt P00533). As to the kind of experiment: Inhibition of EGFR (unknown origin) using poly(glu,Tyr)4:1 as substrate incubated for 30 mins by homogeneous time-resolved fluorescence assay.
For series [15], the system named is HT-29. The series is described as follows: Potency index, ratio of IC50 for foretinib to IC50 for test compound for cytotoxicity against human HT-29 cells. It is filed as functional.
The nature of series [16]: Antitumor activity against human MKN45 cells xenografted in Balb/c mouse assessed as tumor growth inhibition at 50 mg/kg, po bid for 24 days relative to control. It is filed as functional, MKN-45. Further details: scale not given: the % may be the effect or the level left.
For series [17], the system named is HT-29. As to the kind of experiment: Antitumor activity against human HT-29 cells xenografted in Balb/c mouse assessed as tumor growth inhibition at 50 mg/kg, po bid for 27 days relative to control. Further details: scale not given: the % may be the effect or the level left. The series is classed as functional.
Series [18] concerns the target Vascular endothelial growth factor receptor 2 (Homo sapiens, UniProt P35968). The series is described as follows: Inhibition of KDR (unknown origin) using poly(glu,Tyr)4:1 as substrate incubated for 30 mins by homogeneous time-resolved fluorescence assay.
For series [19], the target named is T1, Receptor-type tyrosine-protein kinase FLT3 (Homo sapiens, UniProt P36888).
T1 sequence (P36888 whole entry): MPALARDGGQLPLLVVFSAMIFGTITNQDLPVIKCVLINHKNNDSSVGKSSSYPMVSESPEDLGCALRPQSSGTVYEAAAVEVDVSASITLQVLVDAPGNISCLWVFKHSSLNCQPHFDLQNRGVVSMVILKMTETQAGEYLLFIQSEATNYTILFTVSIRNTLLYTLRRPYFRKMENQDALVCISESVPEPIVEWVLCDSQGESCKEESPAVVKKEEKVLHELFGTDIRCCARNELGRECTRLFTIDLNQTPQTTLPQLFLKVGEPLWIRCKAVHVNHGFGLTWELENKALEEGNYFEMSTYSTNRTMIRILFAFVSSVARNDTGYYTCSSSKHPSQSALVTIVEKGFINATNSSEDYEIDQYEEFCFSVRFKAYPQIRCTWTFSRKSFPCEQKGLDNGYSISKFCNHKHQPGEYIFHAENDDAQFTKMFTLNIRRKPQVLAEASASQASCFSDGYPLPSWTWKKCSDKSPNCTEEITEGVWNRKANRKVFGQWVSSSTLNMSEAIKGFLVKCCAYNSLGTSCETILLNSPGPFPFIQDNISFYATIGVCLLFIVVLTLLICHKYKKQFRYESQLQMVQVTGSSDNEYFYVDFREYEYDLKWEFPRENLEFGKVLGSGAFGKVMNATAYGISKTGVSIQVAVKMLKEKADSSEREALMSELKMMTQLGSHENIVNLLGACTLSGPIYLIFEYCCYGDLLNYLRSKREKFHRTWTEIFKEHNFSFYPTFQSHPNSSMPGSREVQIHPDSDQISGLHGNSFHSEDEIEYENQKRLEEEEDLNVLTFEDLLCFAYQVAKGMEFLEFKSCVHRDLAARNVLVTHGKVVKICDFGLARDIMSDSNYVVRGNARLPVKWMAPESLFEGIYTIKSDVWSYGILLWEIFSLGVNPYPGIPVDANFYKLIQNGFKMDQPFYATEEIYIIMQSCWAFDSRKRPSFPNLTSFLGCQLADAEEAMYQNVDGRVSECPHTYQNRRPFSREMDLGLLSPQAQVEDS
As to the kind of experiment: Inhibition of Flt-3 (unknown origin) using poly(glu,Tyr)4:1 as substrate incubated for 30 mins by homogeneous time-resolved fluorescence assay.

Series [20] concerns the target Hepatocyte growth factor receptor (Homo sapiens, UniProt P08581). As to the kind of experiment: Inhibition of c-Met kinase (unknown origin) using poly(glu,Tyr)4:1 as substrate incubated for 30 mins by homogeneous time-resolved fluorescence assay.
Series [21] deals with Macrophage-stimulating protein receptor (Homo sapiens, UniProt Q04912). As to the kind of experiment: Inhibition of Ron (unknown origin) using poly(glu,Tyr)4:1 as substrate incubated for 30 mins by homogeneous time-resolved fluorescence assay.
Series [22] deals with Mast/stem cell growth factor receptor Kit (Homo sapiens, UniProt P10721). The series is described as follows: Inhibition of c-kit (unknown origin) using poly(glu,Tyr)4:1 as substrate incubated for 30 mins by homogeneous time-resolved fluorescence assay.
Series [23] can be described thus: Potency index, ratio of IC50 for foretinib to IC50 for test compound for cytotoxicity against human MKN45 cells. The series is classed as functional, MKN-45.
The test system of series [24] is Mus musculus. The series is described as follows: Toxicity in Balb/c mouse xenografted with human HT-29 cells assessed as change in body weight at 50 mg/kg, po bid for 27 days. The conditions noted are these: in vivo, 648 h. The series is classed as organism-based.

Bounds are passed on as bounds.

Sequence of Mast/stem cell growth factor receptor Kit (P10721 whole entry): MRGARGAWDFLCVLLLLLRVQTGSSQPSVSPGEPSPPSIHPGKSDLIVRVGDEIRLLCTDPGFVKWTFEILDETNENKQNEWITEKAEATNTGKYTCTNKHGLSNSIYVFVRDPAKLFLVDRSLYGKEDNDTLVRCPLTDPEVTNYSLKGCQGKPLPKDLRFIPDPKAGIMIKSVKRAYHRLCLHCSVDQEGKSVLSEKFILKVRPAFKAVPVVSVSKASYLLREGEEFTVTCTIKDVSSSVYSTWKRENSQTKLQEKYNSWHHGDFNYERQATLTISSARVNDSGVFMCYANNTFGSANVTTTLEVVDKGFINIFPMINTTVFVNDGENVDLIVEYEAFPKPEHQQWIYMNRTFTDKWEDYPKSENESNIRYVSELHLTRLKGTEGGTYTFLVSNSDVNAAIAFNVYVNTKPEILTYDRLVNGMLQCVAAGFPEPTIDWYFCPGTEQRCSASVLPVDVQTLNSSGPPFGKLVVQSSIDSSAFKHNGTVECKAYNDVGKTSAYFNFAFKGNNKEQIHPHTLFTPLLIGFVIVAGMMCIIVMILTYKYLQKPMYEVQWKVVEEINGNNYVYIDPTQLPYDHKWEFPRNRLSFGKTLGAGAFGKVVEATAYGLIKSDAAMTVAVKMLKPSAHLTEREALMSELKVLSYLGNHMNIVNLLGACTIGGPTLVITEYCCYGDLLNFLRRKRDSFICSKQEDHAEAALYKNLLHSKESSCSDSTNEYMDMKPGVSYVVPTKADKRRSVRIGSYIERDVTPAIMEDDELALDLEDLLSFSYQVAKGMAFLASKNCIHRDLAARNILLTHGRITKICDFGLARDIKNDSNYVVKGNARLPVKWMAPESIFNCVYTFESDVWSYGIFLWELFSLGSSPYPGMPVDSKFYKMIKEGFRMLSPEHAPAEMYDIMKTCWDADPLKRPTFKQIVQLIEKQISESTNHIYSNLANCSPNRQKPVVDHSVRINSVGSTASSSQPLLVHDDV
Sequence of Vascular endothelial growth factor receptor 2 (P35968 whole entry): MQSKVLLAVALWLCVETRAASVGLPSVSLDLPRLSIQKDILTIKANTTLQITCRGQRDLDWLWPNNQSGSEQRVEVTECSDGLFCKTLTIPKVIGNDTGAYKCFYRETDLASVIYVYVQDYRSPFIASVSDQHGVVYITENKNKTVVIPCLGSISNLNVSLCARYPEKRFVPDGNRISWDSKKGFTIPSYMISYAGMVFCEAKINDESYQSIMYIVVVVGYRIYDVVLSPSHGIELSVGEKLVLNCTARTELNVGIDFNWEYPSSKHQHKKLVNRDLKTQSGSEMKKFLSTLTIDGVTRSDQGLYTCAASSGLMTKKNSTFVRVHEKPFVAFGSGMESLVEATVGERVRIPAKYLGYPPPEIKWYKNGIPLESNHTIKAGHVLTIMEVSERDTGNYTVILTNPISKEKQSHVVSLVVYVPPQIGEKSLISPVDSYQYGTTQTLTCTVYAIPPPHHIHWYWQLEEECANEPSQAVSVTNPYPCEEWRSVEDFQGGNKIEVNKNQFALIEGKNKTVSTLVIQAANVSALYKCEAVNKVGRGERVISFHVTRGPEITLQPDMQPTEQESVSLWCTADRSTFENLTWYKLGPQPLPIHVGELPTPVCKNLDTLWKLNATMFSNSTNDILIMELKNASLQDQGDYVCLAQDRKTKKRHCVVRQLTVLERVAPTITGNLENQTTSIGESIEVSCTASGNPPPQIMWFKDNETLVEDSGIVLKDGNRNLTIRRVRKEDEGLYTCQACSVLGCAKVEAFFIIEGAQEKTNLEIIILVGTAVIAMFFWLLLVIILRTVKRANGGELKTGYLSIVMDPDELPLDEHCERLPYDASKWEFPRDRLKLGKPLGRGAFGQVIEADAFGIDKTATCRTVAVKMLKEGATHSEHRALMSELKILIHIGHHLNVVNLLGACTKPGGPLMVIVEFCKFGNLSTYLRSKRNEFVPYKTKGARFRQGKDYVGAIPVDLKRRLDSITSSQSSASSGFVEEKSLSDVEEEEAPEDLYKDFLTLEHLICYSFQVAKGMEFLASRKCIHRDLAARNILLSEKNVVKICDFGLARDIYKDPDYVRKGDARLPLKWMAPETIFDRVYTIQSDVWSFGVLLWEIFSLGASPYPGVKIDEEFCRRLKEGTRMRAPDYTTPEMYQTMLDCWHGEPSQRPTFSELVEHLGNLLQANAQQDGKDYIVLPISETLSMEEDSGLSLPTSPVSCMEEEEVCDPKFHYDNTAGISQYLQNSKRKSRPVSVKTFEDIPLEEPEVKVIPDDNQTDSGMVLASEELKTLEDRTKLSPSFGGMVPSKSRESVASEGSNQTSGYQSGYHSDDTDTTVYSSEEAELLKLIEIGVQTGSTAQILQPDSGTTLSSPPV
Sequence of Epidermal growth factor receptor (P00533 whole entry): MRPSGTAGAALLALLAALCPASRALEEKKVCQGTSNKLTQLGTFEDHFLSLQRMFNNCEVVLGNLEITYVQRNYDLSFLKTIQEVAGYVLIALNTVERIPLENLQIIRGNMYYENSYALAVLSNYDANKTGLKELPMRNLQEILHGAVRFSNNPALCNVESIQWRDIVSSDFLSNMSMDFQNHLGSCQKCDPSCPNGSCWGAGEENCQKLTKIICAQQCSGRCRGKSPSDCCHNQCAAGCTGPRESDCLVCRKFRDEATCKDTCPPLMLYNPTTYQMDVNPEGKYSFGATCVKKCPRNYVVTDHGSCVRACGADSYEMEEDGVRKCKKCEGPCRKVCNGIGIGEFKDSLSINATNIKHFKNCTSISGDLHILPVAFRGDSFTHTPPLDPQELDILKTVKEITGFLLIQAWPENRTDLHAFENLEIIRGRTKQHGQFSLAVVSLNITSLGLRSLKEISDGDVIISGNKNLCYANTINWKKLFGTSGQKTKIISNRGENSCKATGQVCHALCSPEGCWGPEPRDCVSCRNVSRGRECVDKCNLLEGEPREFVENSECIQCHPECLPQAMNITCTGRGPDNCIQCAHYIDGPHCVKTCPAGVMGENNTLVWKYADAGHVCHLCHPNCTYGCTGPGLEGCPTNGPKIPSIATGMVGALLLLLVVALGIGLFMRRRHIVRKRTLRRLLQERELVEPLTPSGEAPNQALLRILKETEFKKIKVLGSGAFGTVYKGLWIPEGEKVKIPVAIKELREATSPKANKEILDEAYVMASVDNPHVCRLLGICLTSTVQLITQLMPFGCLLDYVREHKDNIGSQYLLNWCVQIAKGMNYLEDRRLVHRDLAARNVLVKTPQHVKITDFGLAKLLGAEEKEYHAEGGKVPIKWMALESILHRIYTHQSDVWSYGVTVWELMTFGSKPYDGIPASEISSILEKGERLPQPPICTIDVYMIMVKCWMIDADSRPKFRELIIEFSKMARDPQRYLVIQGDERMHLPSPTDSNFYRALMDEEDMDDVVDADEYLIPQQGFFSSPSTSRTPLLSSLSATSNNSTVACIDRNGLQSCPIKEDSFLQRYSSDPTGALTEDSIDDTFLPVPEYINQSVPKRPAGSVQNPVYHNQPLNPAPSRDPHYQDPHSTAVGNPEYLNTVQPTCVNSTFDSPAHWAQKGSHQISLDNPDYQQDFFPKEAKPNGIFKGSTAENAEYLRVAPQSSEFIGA
Sequence of Platelet-derived growth factor receptor alpha (P16234 whole entry): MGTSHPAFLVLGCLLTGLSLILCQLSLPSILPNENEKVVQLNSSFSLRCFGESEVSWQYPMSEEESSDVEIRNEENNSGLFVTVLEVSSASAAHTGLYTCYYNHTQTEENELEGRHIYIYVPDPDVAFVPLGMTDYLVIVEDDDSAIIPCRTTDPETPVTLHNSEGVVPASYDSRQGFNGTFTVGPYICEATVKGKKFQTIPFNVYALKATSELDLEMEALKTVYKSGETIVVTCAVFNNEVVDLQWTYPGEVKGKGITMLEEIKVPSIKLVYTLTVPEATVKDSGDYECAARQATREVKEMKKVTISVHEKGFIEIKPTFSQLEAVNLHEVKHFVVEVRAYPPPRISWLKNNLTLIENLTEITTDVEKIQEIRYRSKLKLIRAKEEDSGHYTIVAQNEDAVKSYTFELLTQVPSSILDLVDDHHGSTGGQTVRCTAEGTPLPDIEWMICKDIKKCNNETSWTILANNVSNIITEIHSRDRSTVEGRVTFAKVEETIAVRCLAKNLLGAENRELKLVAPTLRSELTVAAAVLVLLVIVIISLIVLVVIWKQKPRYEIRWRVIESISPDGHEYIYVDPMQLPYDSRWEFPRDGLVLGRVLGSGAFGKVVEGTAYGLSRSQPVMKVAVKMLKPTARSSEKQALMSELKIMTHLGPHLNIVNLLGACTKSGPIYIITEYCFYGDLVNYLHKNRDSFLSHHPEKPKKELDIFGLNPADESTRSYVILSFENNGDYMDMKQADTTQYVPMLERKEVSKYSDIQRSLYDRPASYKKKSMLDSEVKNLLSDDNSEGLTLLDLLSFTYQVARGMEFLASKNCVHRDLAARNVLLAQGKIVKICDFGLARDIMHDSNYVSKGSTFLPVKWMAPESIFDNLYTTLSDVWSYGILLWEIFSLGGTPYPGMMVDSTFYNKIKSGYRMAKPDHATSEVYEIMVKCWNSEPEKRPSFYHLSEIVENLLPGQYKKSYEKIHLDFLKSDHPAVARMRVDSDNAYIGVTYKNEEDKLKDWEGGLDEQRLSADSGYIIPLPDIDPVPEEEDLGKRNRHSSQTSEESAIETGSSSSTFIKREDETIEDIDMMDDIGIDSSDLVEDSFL

By MRT inf is commonly meant a mean duration of stay, worked out from the concentration-time curve. As usually defined, the AUC is the area under the concentration-time curve, a measure of exposure. Broadly, the IC50 is the concentration that inhibits the measured activity by half. The term Cmax denotes the peak of the concentration-time curve. Broadly, the Tmax is the time from dosing to the highest level. `COc1cc2c(Oc3ccc(/C=N/NC(=O)Nc4ccc(F)cc4Br)cc3F)ccnc2cc1OCCCN1CCCCC1` had a mean residence time MRT inf in series [1] of 14.8 h. Further, the AUC with Mus musculus [2] stood at 1210 ng·h/mL. Besides, the IC50 in the series on HT-29 [3] is 110 nM; in the series on PBL it was 36400 nM; in series [4] it was 140 nM; in the series on MDA-MB-231, 1000 nM; in the series on A549 [9], 98 nM. Also, the Vd/F in series [5] came to 346 L/kg. This compound registered a Cmax in the series on Mus musculus [6] of 73 ng/mL. This compound also had a t1/2 in the series with Mus musculus [7] of 5.07 h. The Tmax in the series with Mus musculus [8] turned out to be 7.33 h.

The term CL/F denotes clearance divided by bioavailability, as obtained after extravascular dosing. Take `COc1cc2c(Oc3ccc(NC(=O)N/N=C/c4ccc(F)cc4Cl)cc3F)ccnc2cc1OCCCN1CCCCC1`: the MRT inf in series [1] is 13.2 h. The AUC in the series on Mus musculus [2] was 910 ng·h/mL. Further, the CL/F in the series with Mus musculus [10] worked out at 1334 mL/min/kg. In addition, the IC50 worked out at 260 nM in the series on HT-29 [3], 270 nM in series [4], 790 nM in the series with MDA-MB-231 and 130 nM in the series on A549 [9]. Besides, in series [5], the Vd/F stood at 371 L/kg. The Cmax in the series on Mus musculus [6] amounted to 78 ng/mL. This compound displayed a t1/2 in the series with Mus musculus [7] of 3.3 h. In addition, the Tmax in the series on Mus musculus [8] came to 0.75 h.

For `C=CCc1cccc(/C=N/NC(=O)Nc2ccc(Oc3ccnc4cc(OCCCN5CCCCC5)c(OC)cc34)c(F)c2)c1O`, the MRT inf in series [1] is 23.4 h. The area under the curve (AUC) with Mus musculus [2] was 16500 ng·h/mL. Further, the IC50 with HT-29 [3] was 27 nM; in the series with PBL, 107000 nM; in series [4], 39 nM; in series [11], 212 nM; in the series on MDA-MB-231, 440 nM; in series [14], above 100000 nM. In addition, the IC50 in [18] was found to be 210 nM; in [19], 367 nM; in series [20], 1.54 nM; in [21] it was 14.5 nM; in [22], 162 nM; in the series on A549 [9], 11 nM. The Vd/F in series [5] is 43.9 L/kg. In addition, the Cmax in the series with Mus musculus [6] was 680 ng/mL. Moreover, the Activity result in the series with Mus musculus [12] is on record as “Non-toxic”; in [16], 70.18%; in the series on HT-29 [17], 65.86%; in the series on Mus musculus [24] it was “Non-toxic”. In addition, the “Ratio IC50” value turned out to be 15.4 with A549 [13], 9.6 in the series with HT-29 [15] and 1.7 in [23]. For the same compound, the t1/2 in the series with Mus musculus [7] was 13.75 h. For the same compound, in the series with Mus musculus [8], the Tmax was 6 h.

Regarding `COc1cc2c(Oc3ccc(NC(=O)C4(C(=O)Nc5ccc(F)cc5)CC4)cc3F)ccnc2cc1OCCCN1CCOCC1` [FORETINIB], the Activity result in the series with Mus musculus [12] is “Non-toxic”; in [16] it was 78.23%; in the series on HT-29 [17], 73.68%; with Mus musculus [24] it was “Non-toxic”.

In turn, `COc1cc2c(Oc3ccc(NC(=S)N/N=C/c4ccccc4)cc3F)ccnc2cc1OCCCN1CCCCC1` registered a mean residence time MRT inf in series [1] of 24.3 h. Further, the AUC in the series with Mus musculus [2] turned out to be 7340 ng·h/mL. Also, the IC50 came out at 210 nM in the series with HT-29 [3]; 78400 nM in the series on PBL; 710 nM in series [4]; 1200 nM in the series on MDA-MB-231; 330 nM with A549 [9]. In addition, the Vd/F in series [5] amounted to 107 L/kg. In the series on Mus musculus [6], this compound registered a Cmax of 87 ng/mL. The compound also registered a t1/2 with Mus musculus [7] of 13.48 h. Moreover, the Tmax in the series with Mus musculus [8] was 12 h.

The values are drawn from ChEMBL document CHEMBL3763046 (Bioorg Med Chem, 2016).
